# Measured values published in US6017880A, “Inhibition of retrovirus infection” (Amgen Inc., priority 1995, dated 2000).
# System: U937 cells
# Test: Number of SLPI binding sites on PMA-induced U937 cells (Scatchard plot)
# Assay type: cell-based, human
# Settings: PMA 25 ng per ml, 48 hours, versus non-induced cells
# Experimental: U937 cells were induced by 13-phorbol-12-myristate acetate ("PMA").
# U937 cells at an initial concentration of 10,000 cells per ml were placed in two flasks. PMA was added to one flask at a final concentration of 25 ng per ml. After 48 hours, cells were harvested from both flasks. Using the method of Dripps et al., J. Biol. Chem., Vol. 266, No. 16, pp. 10331-10336 (1991), and labelling with I-125, having a specific activity of 91.5 Curries per millimole, the number of SLPI binding sites was determined. […] In this experiment, the Kd in non-induced cells was 1.1 lnM; The Kd in PMA-induced cells was 1.0 nM. The reduction in the number of SLPI binding sites in the PMA-induced cells is consistent with SLPI binding to elastase and cathepsin G on the cell surface.
smiles,measurement,value
"CCCCCCCCCCCCCC(=O)O[C@@H]1[C@@H](C)[C@@]2(O)[C@@H](C=C(CO)C[C@]3(O)C(=O)C(C)=C[C@@H]23)[C@@H]2C(C)(C)[C@]12OC(C)=O [PMA, 13-phorbol-12-myristate acetate]",Reduction in the number of SLPI binding sites,70%
